{"source": "patent US9169245B2", "about": "“Inhibitors of PDE4 enzyme and antagonists of muscarinic M3 receptor” (CHIESI FARMACEUTICI S.p.A., priority 2012, dated 2015)", "origin": "cited, not measured here", "key": {"[1]": {"conditions": "COPD patients, oral, given over 4 weeks"}, "[2]": {"conditions": "patients with severe disease, frequent exacerbations and mucus hypersecretion"}}}
{"smiles": "O=C(Nc1c(Cl)cncc1Cl)c1ccc(OC(F)F)c(OCC2CC2)c1", "note": "[roflumilast]", "values": [{"measurement": "reduction of the numbers of neutrophils in sputum", "setting": "[1]", "value": 36, "unit": "%"}, {"measurement": "improvement of FEV 1", "setting": "[2]", "value": "approximately 50 ml"}, {"measurement": "reduction of exacerbation", "setting": "[2]", "value": "about 15%"}]}
